Data on 25 compounds can be found in patent publication US20230271954A1 (Gossamer Bio Services, Inc., priority 2020, published 2023).

SMILES strings stand for the structures.

One experiment has as its target T1, DGKζ (Homo sapiens, UniProt Q13574).
T1 construct: purchased Carna 12-110
Put plainly: DGKζ biochemical assay (ADP-Glo). To be noted: read-out: DGK ζ IC50.

Another experiment deals with DGKα (Homo sapiens, UniProt P23743). Put plainly: DGKα biochemical assay (ADP-Glo). To be noted: read-out: DGK α IC50. In a few lines: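 ADP-Glo kinase assay using OAG/PS (1:2) lipid substrate, sonicated, in HEPES pH 7.0 buffer with MgCl2, CaCl2, DTT, BSA, Triton X-100. Enzyme preincubated with compound 30 min at RT; substrate with ATP (DGKα: 400 μM) added, 45 min RT. Luminescence read; % inhibition vs DMSO and no-enzyme controls.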
DGKα, sequence (P23743 whole entry): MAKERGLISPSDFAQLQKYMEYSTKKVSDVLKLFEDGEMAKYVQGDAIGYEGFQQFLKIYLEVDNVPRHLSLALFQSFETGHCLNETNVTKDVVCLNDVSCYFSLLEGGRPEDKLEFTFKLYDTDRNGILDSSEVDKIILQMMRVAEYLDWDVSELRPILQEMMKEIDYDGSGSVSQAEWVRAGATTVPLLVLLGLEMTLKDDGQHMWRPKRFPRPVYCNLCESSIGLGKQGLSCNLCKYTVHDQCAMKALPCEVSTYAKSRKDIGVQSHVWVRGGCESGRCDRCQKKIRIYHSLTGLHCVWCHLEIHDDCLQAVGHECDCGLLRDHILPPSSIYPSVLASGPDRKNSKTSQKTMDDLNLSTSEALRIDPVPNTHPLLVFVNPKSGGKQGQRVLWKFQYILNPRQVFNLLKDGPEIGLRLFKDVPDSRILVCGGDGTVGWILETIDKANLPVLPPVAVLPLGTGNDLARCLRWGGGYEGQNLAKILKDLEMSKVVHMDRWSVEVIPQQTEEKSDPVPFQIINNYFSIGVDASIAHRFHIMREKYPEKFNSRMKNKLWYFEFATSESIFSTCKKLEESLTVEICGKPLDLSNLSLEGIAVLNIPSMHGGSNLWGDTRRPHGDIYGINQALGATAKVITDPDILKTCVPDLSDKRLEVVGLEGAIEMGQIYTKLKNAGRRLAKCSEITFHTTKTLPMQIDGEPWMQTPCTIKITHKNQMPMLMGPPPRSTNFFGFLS
On the technique in general: ADP-Glo first removes unused ATP, then detects ADP through luciferase.

T1 sequence (Q13574 1-929 isoform Q13574-4): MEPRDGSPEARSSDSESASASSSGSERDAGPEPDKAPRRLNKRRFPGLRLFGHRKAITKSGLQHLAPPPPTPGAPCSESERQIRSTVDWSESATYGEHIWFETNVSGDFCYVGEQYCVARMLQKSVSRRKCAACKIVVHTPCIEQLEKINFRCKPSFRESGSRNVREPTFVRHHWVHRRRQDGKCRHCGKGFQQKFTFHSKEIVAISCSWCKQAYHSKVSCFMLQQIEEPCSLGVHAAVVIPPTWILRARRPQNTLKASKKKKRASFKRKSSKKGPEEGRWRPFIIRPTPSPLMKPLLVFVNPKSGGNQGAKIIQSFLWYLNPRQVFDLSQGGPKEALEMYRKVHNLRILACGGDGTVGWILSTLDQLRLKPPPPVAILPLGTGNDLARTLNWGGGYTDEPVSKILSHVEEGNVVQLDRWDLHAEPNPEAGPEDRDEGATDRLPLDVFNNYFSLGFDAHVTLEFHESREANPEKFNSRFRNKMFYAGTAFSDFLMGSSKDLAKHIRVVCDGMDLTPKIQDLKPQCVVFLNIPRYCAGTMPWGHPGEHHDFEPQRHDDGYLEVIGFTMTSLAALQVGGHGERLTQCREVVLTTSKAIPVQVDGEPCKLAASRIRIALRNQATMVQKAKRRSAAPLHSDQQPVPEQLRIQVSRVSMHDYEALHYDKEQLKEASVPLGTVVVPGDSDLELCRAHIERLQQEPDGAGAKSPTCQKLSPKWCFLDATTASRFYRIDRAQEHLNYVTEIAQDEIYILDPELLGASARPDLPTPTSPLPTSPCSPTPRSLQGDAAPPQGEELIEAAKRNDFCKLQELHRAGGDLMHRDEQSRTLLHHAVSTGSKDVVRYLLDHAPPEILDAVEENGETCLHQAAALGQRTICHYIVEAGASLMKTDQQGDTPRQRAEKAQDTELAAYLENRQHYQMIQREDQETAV

A word on the IC50: it is the midpoint of a concentration-inhibition curve. Take `Cn1c(=O)c(C#N)c(N(C)[C@H]2CC[C@@H](N(CC3CCC3)c3cccc4c3OCO4)CC2)c2nc(C#N)ccc21` [Example 109, cis-8-((-4-(benzo[d][1,3]dioxol-4-yl(cyclobutylmethyl)amino)cyclohexyl)(methyl)amino)-5-methyl-6-oxo-5,6-dihydro-1,5-naphthyridine-2,7-dicarbonitrile]: the concentration for half-maximal inhibition (IC50) at DGKζ and on DGKα was 10 to 100 nM each time.

For the compound `Cn1c(=O)oc2ccc(N(CC3CC3)[C@H]3CC[C@@H](N(C)c4c(C#N)c(=O)n(C)c5ccc(C#N)nc45)CC3)cc21` [Example 207, cis-8-((-4-((cyclopropylmethyl)(3-methyl-2-oxo-2,3-dihydrobenzo[d]oxazol-5-yl)amino)cyclohexyl) (methyl)amino)-5-methyl-6-oxo-5,6-dihydro-1,5-naphthyridine-2,7-dicarbonitrile], the IC50 at DGKζ and at DGKα was at least 1000 nM in each case.

`Cn1c(=O)c(C#N)c(N(C)[C@H]2CC[C@H](N(c3ccc(F)cc3O)C3CC3)CC2)c2nc(Cl)ccc21` [Example 3G, trans-6-chloro-4-((4-(cyclopropyl(4-fluoro-2-hydroxyphenyl)amino)cyclohexyl)(methyl)amino)-1-methyl-2-oxo-1,2-dihydro-1,5-naphthyridine-3-carbonitrile]: the IC50 is at least 1000 nM on DGKζ and 10 to 100 nM on DGKα.

Take `Cn1c(=O)c(C#N)c(N(C)[C@H]2CC[C@@H](N(CC3CC3)c3cc(F)cc(F)c3)CC2)c2nc(C#N)ccc21` [Example 81]: the IC50 at DGKζ and on DGKα was 10 to 100 nM in each case.

For the compound `Cn1c(=O)c(C#N)c(N(C)[C@H]2CC[C@@H](N(C[C@@H]3CCCOC3)c3ccc(F)cc3)CC2)c2nc(C#N)ccc21` [Example 69], the IC50 on DGKζ and at DGKα was 10 to 100 nM each time.

In the case of `COc1cc(F)ccc1N(CC1CC1)[C@H]1CC[C@@H](N(C)c2cc(=O)n(C)c3ccc(C#N)nc23)CC1` [Example 3Z, cis-8-[[4-(N-cyclopropylmethyl-N-4-fluoro-2-methoxyphenyl-anilino)cyclohexyl]-methyl-amino]-5-methyl-6-oxo-5,6-dihydro-1,5-naphthyridine-2-carbonitrile], the IC50 on DGKζ and at DGKα was 100 to 1000 nM in each case.

`Cn1c(=O)c(C#N)c(N(C)[C@H]2CC[C@@H](N(CC3CC3)c3ccc(F)c(OC4CC4)c3)CC2)c2nc(C#N)ccc21` [Example 123, cis-8-((-4-((3-cyclopropoxy-4-fluorophenyl) (cyclopropylmethyl)amino)cyclohexyl)(methyl)amino)-5-methyl-6-oxo-5,6-dihydro-1,5-naphthyridine-2,7-dicarbonitrile]: the IC50 at DGKζ and at DGKα was 10 to 100 nM in each case.

On to `COc1cc(F)ccc1N(C1CCC1)[C@H]1CC[C@@H](N(C)c2c(C#N)c(=O)n(C)c3ccc(Cl)nc23)CC1` [Example 17, cis-6-chloro-4-((4-(cyclobutyl(4-fluoro-2-methoxyphenyl)amino)cyclohexyl)(methyl)amino)-1-methyl-2-oxo-1,2-dihydro-1,5-naphthyridine-3-carbonitrile], for which the IC50 on DGKζ and at DGKα was at least 1000 nM each time.

Turning to `Cc1cc(N(CC2CCC2)[C@H]2CC[C@@H](N(C)c3cc(=O)n(C)c4ccc(C#N)nc34)CC2)ccc1F` [Example 92], the half-maximal inhibitory concentration (IC50) was in the range of 100 to 1000 nM on DGKζ and 10 to 100 nM on DGKα.

As to `Cc1nc(F)ccc1N(CC1CCOC1)[C@H]1CC[C@H](N(C)c2c(C#N)c(=O)n(C)c3ccc(C#N)nc23)CC1` (stereo partly drawn) [Example 130, trans-8-((-4-((6-fluoro-2-methylpyridin-3-yl) ((tetrahydrofuran-3-yl)methyl)amino)cyclohexyl) (methyl)amino)-5-methyl-6-oxo-5,6-dihydro-1,5-naphthyridine-2,7-dicarbonitrile], the IC50 on DGKζ and at DGKα was 100 to 1000 nM each time.

`Cn1c(=O)c([N+](=O)[O-])c(N2CCC(N(CC3CC3)c3ccccc3)CC2)c2nc(C#N)ccc21` [Example 1B, 8-(4-((Cyclopropylmethyl)(phenyl)amino)piperidin-1-yl)-5-methyl-7-nitro-6-oxo-5,6-dihydro-1,5-naphthyridine-2-carbonitrile]: the results for the half-maximal inhibitory concentration (IC50) at DGKζ and on DGKα were 100 to 1000 nM and 10 to 100 nM, respectively.

As for `COc1cc(N(CC2CC2)[C@H]2CC[C@H](N(C)c3cc(=O)n(C)c4ccc(C#N)nc34)CC2)cc(F)c1F` [Example 95], the values for the IC50 on DGKζ and at DGKα were 100 to 1000 nM and at least 1000 nM, respectively.

For `COc1cccc(N(CC2CC2)[C@H]2CC[C@H](N(C)c3c(C#N)c(=O)n(C)c4ccc(C#N)nc34)CC2)c1` [Example 29, trans-8-((4-((cyclopropylmethyl)(3-methoxyphenyl)amino)cyclohexyl)(methyl)amino)-5-methyl-6-oxo-5,6-dihydro-1,5-naphthyridine-2,7-dicarbonitrile], the concentration for half-maximal inhibition (IC50) on DGKζ is at least 1000 nM; at DGKα it was 100 to 1000 nM.

In the case of `COc1cc(F)ccc1N(C)[C@H]1CC[C@H](N(C)c2c(C#N)c(=O)n(C)c3ccc(C#N)nc23)CC1` [Example 46, trans-8-((4-((4-fluoro-2-methoxyphenyl)(methyl)amino)cyclohexyl)(methyl)amino)-5-methyl-6-oxo-5,6-dihydro-1,5-naphthyridine-2,7-dicarbonitrile], the half-inhibitory concentration (IC50) lay within 10 to 100 nM on DGKζ and 100 to 1000 nM on DGKα.

In the case of `COc1cc(F)ccc1N(CC1CCC1)[C@H]1CC[C@H](N(C)c2c(C#N)c(=O)n(C)c3ccc(C#N)nc23)CC1` [Example 120, trans-8-((-4-((cyclobutylmethyl)(4-fluoro-2-methoxyphenyl)amino)cyclohexyl)(methyl)amino)-5-methyl-6-oxo-5,6-dihydro-1,5-naphthyridine-2,7-dicarbonitrile], the concentration for half-maximal inhibition (IC50) on DGKζ lay in the range of 10 to 100 nM; on DGKα, 100 to 1000 nM.

For `COc1cc(N(CC2CC2)[C@H]2CC[C@H](N(C)c3c(C#N)c(=O)n(C)c4ccc(Cl)nc34)CC2)cc(F)c1F` [Example 85], the results for the IC50 at DGKζ and on DGKα were at least 1000 nM and under 10 nM, respectively.

For the compound `Cc1cc(F)cc(N(CC2CCC2)[C@H]2CC[C@@H](N(C)c3cc(=O)n(C)c4ccc(C#N)nc34)CC2)c1` [Example 114, cis-8-((-4-((cyclobutylmethyl)(3-fluoro-5-methylphenyl)amino)cyclohexyl)(methyl)amino)-5-methyl-6-oxo-5,6-dihydro-1,5-naphthyridine-2-carbonitrile], the half-maximal inhibitory concentration (IC50) at DGKζ is at least 1000 nM; on DGKα, 10 to 100 nM.

`Cn1c(=O)cc(N(C)[C@H]2CC[C@@H](N(CC3CCC3)c3ccc4c(c3)OCCO4)CC2)c2nc(C#N)ccc21` [Example 169, cis-8-((4-((cyclobutylmethyl)(2,3-dihydrobenzo[b] [1,4]dioxin-6-yl)amino)cyclohexyl)(methyl)amino)-5-methyl-6-oxo-5,6-dihydro-1,5-naphthyridine-2-carbonitrile]: the IC50 at DGKζ and at DGKα was 10 to 100 nM each time.

Consider `CN1Cc2ccc(N(CC3CC3)[C@H]3CC[C@@H](N(C)c4c(C#N)c(=O)n(C)c5ccc(C#N)nc45)CC3)cc2C1=O` [Example 204, cis-8-((-4-((cyclopropylmethyl)(2-methyl-3-oxoisoindolin-5-yl)amino)cyclohexyl)(methyl)amino)-5-methyl-6-oxo-5,6-dihydro-1,5-naphthyridine-2,7-dicarbonitrile], for which the IC50 on DGKζ and on DGKα was at least 1000 nM in each case.

Regarding `Cn1c(=O)cc(N(C)[C@H]2CC[C@@H](N(CC3COCCO3)c3cccc4c3OCO4)CC2)c2nc(C#N)ccc21` (single isomer, unassigned) [Example 195, cis-8-((-4-((((S or R)-1,4-dioxan-2-yl)methyl) (benzo[d][1,3]dioxol-4-yl)amino)cyclohexyl)(methyl)amino)-5-methyl-6-oxo-5,6-dihydro-1,5-naphthyridine-2-carbonitrile], the IC50 on DGKζ and at DGKα was 100 to 1000 nM throughout.

Regarding `COc1cc(N(CC2CC2)[C@H]2CC[C@@H](N(C)c3c(C#N)c(=O)n(C)c4ccc(C#N)nc34)CC2)cc(OC)c1F` [Example 101], the concentration for half-maximal inhibition (IC50) was 10 to 100 nM at DGKζ and at least 1000 nM on DGKα.

On to `Cn1c(=O)c(C#N)c(N(C)[C@H]2CC[C@H](N(CC3CCOC3)c3ccc(F)cc3)CC2)c2nc(C#N)ccc21` (relative stereo) [Example 56, trans-8-((4-((4-fluorophenyl)((tetrahydrofuran-3-yl)methyl)amino)cyclohexyl)(methyl)amino)-5-methyl-6-oxo-5,6-dihydro-1,5-naphthyridine-2,7-dicarbonitrile], for which the half-inhibitory concentration (IC50) is at least 1000 nM on DGKζ and 10 to 100 nM at DGKα.

`Cc1nc(F)ccc1N(CC1CCC1)[C@H]1CC[C@H](N(C)c2c(C#N)c(=O)n(C)c3ccc(C#N)nc23)CC1` [Example 131, trans-8-((-4-((cyclobutylmethyl)(6-fluoro-2-methylpyridin-3-yl)amino)cyclohexyl)(methyl)amino)-5-methyl-6-oxo-5,6-dihydro-1,5-naphthyridine-2,7-dicarbonitrile]: the IC50 on DGKζ and at DGKα was 100 to 1000 nM in each case.

Take `Cn1c(=O)c(C#N)c(N(C)[C@H]2CC[C@@H](N(CC3CCC3)c3ccc4c(c3)OCCO4)CC2)c2nc(C#N)ccc21` [Example 170, cis-8-((4-((cyclobutylmethyl)(2,3-dihydrobenzo[b] [1,4]dioxin-6-yl)amino)cyclohexyl)(methyl)amino)-5-methyl-6-oxo-5,6-dihydro-1,5-naphthyridine-2,7-dicarbonitrile]: the concentration for half-maximal inhibition (IC50) at DGKζ and at DGKα was 10 to 100 nM in each case.

For the compound `Cc1c(F)cccc1N(CC1CC1)[C@H]1CC[C@H](N(C)c2c(C#N)c(=O)n(C)c3ccc(C#N)nc23)CC1` [Example 107, trans-8-((4-((cyclopropylmethyl)(3-fluoro-2-methylphenyl)amino)cyclohexyl)(methyl)amino)-5-methyl-6-oxo-5,6-dihydro-1,5-naphthyridine-2,7-dicarbonitrile], the half-maximal inhibitory concentration (IC50) on DGKζ is 100 to 1000 nM; at DGKα, at least 1000 nM.
